Test [1] addresses T1, αMI-domain double mutant of integrin Mac-1 (αMβ2, CD11b/CD18) (Homo sapiens, UniProt P11215, R232A/T229A).
T1 construct: gene ITGAM; αMI-domain, human mutant
Put plainly: SPR (Biacore […], ~[…] RU, steady-state affinity); low-level binding, no consistent interaction at ~[…] RU. On the technique in general: In SPR one partner is held on a chip, and binding of the other changes the refractive index at the surface.

The target of test [2] is T2, αMI-domain of integrin Mac-1 (αMβ2, CD11b/CD18) (Homo sapiens, UniProt P11215).
T2 construct: gene ITGAM; αMI-domain, human WT
Put plainly: SPR (Biacore […], CM5 chip, steady-state affinity); supported by inhibition of GPIbα binding to αMI-domain (IC50 […]).

T1 sequence (P11215 150-328 T229A/R232A limits assumed): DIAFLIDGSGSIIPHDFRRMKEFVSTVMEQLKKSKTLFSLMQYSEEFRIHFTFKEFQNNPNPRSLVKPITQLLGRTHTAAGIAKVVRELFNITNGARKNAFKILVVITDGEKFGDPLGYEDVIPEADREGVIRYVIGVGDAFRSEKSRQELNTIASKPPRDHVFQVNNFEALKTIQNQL
T2 sequence (P11215 150-328 limits assumed): as the sequence (P11215 150-328 T229A/R232A limits assumed) above, with A80T, A83R counted along it

For the compound `N[C@H]1C(O)O[C@H](CO)[C@@H](O)[C@@H]1O` (some centres unmarked) [glucosamine], the Kd is ~244 µM in test [1] and ~100 µM in test [2].

As a reminder, the Kd is the equilibrium constant for the complex coming apart. Read a low Kd as a tighter complex.

Source of the values: article PMC5477519, “Leukocyte integrin Mac-1 regulates thrombosis via interaction with platelet GPIbα” (Nature Communications, 2017).
